The test system of one experiment is SW620. Nature of the experiment: CCK-8 proliferation, SW620. In kind it is cell-based. The note with it: Homo sapiens, SW-620; CCK-8; 96 hours; read-out: Inhibitory activity (IC50) on tumor cell proliferation, SW620. The procedure, abridged:
(§1)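 Tumor cells were cultured at 37°C with 5% CO2, seeded, and after 24h treated with compounds at 10 concentrations starting at 10µM (5-fold serial dilutions).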

In another experiment the test system is Jurkat. Nature of the experiment: CCK-8 proliferation, Jurkat. Format: cell-based, Human. The note with it: Homo sapiens, Jurkat; CCK-8; 96 hours; read-out: Inhibitory activity (IC50) on tumor cell proliferation, Jurkat. The procedure, abridged:
as §1

The subject of a further experiment is CCRF-CEM. Nature of the experiment: CCK-8 proliferation, CCRF-CEM. In kind it is cell-based, Human. The note with it: Homo sapiens, CCRF-CEM; CCK-8; 96 hours; read-out: Inhibitory activity (IC50) on tumor cell proliferation, CCRF-CEM. The procedure, abridged: as §1
For a further experiment, the system named is CFPAC-1. Nature of the experiment: CCK-8 proliferation, CFPAC-1. The following applies: Homo sapiens, 72 or 96 hours, read-out: Inhibitory activity (IC50) on tumor cell proliferation, CFPAC-1. Format: cell-based. The procedure: (§2) The tumor cells used herein were cultured in a cell culture medium listed in table A1 at 37°C in an incubator with 5% CO2. Prior to experimentation, all cell lines used were correctly identified by STR profiling, and tested negative for mycoplasma contamination using a mycoplasma detection kit through routine screenings. Table A1. Tumor cells and cell culture medium used in the present disclosure
(§3) IC50 values of the compounds of the present disclosure (including the compounds in Table 1, and compounds of examples) were measured using the Meilun Cell Counting Kit-8 kit from Dalian Meilun Biotech Co., Ltd. Assay details are as follows: tumor cells were seeded in a 96-well plate at a density listed in Table A2. After 24h, 100 µL of the inoculated cells were treated with 0.5µL of the compounds of the present disclosure (including the compounds in Tables 1 and 2, and compounds of examples) at 10 different successively decreasing concentrations (starting at the highest concentration of 10µM; 5-fold serial dilutions). After the cells were treated with the compounds of the present disclosure for a period of time, the cell viability detection reagent was added to the culture medium for cell viability assessment according to the instructions provided with the CCK-8 kit. […] The growth inhibition of the compounds of the present disclosure on cells was plotted by Prism Graphpad software, and the IC50 values of the compounds of the present disclosure were calculated therefrom. […] Seeding protocol and treatment time for tumor cells

Another experiment concerns LNcap. Nature of the experiment: CCK-8 proliferation, LNcap. In kind it is cell-based. The following applies: Homo sapiens, LNCaP; CCK-8; 96 hours; read-out: Inhibitory activity (IC50) on tumor cell proliferation, Lncap. A digest of the protocol: as §1
In another experiment the test system is MGC-803. Nature of the experiment: CCK-8 proliferation, MGC-803 (heads: MGC80-3, MGC803). In kind it is cell-based, Human. The following applies: Homo sapiens, MGC-803; CCK-8; 72 hours; read-out: Inhibitory activity (IC50) on tumor cell proliferation, MGC803. A digest of the protocol:
as §1

The test system of the next experiment is K562. Nature of the experiment: CCK-8 proliferation, K562. In kind it is cell-based. The note with it: Homo sapiens, 72 or 96 hours, read-out: Inhibitory activity (IC50) on tumor cell proliferation, K562. On the procedure: as §2, §3
A further experiment relates to MM.1R. Nature of the experiment: CCK-8 proliferation, MM.1R. In kind it is cell-based. The following applies: CCK-8, 72 hours, read-out: Inhibitory activity (IC50) on tumor cell proliferation, MM.1R. A digest of the protocol:
as §1

The subject of another experiment is TRK. Nature of the experiment: Western blot degradation of TRK / NTRK (SK-N-AS Cell). Format: cell-based. The following applies: Table D14. The procedure:
(§4) Conventional Western blot assay was performed to evaluate the effects of the compounds of the present disclosure on the expression of target proteins in cells.
(§5) (1) Cell Seeding and Protein Harvesting: The selected cells were processed according to the cell seeding procedure and protein harvesting procedure in Table III-2. Table III-2 Cell Seeding and Protein Harvesting Procedures
(§6) (2) To the collected supernatant, 5X SDS sample loading buffer was added, followed by denaturation at 95°C for 5 minutes. The denatured samples were then separated by SDS-PAGE electrophoresis on a polyacrylamide gel. Proteins were transferred to a nitrocellulose membrane (0.45 µm NC membrane), blocked with blocking buffer at room temperature for 1 hour, and subjected to antibody incubation and development procedures according to the antibody manufacturer's instructions (Cell Signaling Technology).
(§7) Half-Maximal Degradation Concentration value (the drug concentration required for degrading proteins by 50%, abbreviated as DC50) reads method: comparing the grayscale values of Western blot bands from drug-treated samples with those from blank DMSO-treated controls, and identifying the drug concentration range at which the grayscale value is half that of the DMSO-treated control bands.
(§8) DC50 values can be calculated using ImageJ software to measure grayscale values of Western blot bands from drug-treated samples. The concentration-response curve is fitted to estimate the drug concentration corresponding to half the grayscale value.
(§9) Target protein remaining (%) refers to the percentage of target protein remaining in hPBMC cells after treatment with protein degrader compounds.
Calculation method for target protein remaining (%): Use ImageJ software to measure grayscale values of Western blot bands from drug (protein degrader)-treated samples. The grayscale value of drug-treated bands is divided by that of internal control protein bands, and the resulting quotient is normalized to obtain the relative percentage of remaining target protein after protein degrader treatment. […]

The target in a further experiment is T1, ER (Homo sapiens, UniProt P03372).
T1 construct: evaluate the effects of the compounds of the present disclosure on the expression of target proteins in cells; endogenous in cells; host or cells: MCF-7
T1 sequence (P03372 1-595): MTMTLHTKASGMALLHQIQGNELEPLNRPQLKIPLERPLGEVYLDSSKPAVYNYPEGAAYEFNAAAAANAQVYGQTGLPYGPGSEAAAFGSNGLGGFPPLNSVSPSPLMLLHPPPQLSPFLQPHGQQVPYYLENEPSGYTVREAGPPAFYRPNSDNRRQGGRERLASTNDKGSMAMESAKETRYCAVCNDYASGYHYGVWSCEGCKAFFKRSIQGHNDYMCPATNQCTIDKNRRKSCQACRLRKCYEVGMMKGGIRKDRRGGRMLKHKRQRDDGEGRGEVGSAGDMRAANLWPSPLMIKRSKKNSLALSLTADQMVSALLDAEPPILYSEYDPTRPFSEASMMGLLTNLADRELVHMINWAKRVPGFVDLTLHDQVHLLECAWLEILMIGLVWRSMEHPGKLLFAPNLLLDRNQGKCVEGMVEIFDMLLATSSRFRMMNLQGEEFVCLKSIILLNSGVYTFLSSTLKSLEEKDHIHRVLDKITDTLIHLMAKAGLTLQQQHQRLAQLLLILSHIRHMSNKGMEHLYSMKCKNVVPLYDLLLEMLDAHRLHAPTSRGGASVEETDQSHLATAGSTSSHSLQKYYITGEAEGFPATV
Nature of the experiment: Western blot degradation of ER (MCF-7 Cell). Format: cell-based. The following applies: Table D12. On the procedure:
as §4, §5, §6, §7, §8, §9
Calculation method for target protein remaining (%): Use ImageJ software to measure grayscale values of Western blot bands from drug (protein degrader)-treated samples. The grayscale value of drug-treated bands is divided by that of internal control protein bands, and the resulting quotient is normalized to obtain the relative percentage of remaining target protein after protein degrader treatment.
Target protein degradation rate (%) = 100% - target protein remaining (%).
In general terms: In western blotting, separated proteins are transferred to a membrane and probed.

The target of experiment [1] is T2, human Cereblon WT GST-tagged protein (Homo sapiens, UniProt Q96SW2).
T2 construct: purchased CISBIO 64BDCRBNPEH
Nature of the experiment: CRBN binding, HTRF (CEREBLON BINDING kit). The note with it: Table II-1, CRBN binding, HTRF. A digest of the protocol: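 After 3 h at room temperature, emission at 665 and 620 nm was measured in a homogeneous time-resolved fluorescence format. Compounds competed with a Thalidomide-Re probe for GST-tagged wild-type human CRBN, which was labelled with a Eu anti-GST antibody.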
(TR-FRET usually uses a lanthanide donor and a delayed reading to cut background.)

In another experiment the test system is H1975. Nature of the experiment: CCK-8 proliferation, NCI-H1975 (H1975). In kind it is cell-based, Human. The note with it: Homo sapiens, NCI-H1975; CCK-8; 96 hours; read-out: Inhibitory activity (IC50) on tumor cell proliferation, H1975. The procedure, abridged: as §1
The subject of a further experiment is PC-9. Nature of the experiment: CCK-8 proliferation, PC-9. Format: cell-based, Human. The following applies: Homo sapiens, PC-9; CCK-8; 96 hours; read-out: Inhibitory activity (IC50) on tumor cell proliferation, PC-9. A digest of the protocol: as §1
The subject of the next experiment is TMD8. Nature of the experiment: CCK-8 proliferation, TMD8. In kind it is cell-based. The following applies: Homo sapiens, TMD8; CCK-8; 72 hours; read-out: Inhibitory activity (IC50) on tumor cell proliferation, TMD8. The procedure, abridged:
as §1

A further experiment deals with H2228. Nature of the experiment: CCK-8 proliferation, NCI-H2228 (H2228). In kind it is cell-based. The note with it: Homo sapiens, NCI-H2228; CCK-8; 96 hours; read-out: Inhibitory activity (IC50) on tumor cell proliferation, H2228. The procedure, abridged:
as §1

T2 sequence (Q96SW2 whole entry): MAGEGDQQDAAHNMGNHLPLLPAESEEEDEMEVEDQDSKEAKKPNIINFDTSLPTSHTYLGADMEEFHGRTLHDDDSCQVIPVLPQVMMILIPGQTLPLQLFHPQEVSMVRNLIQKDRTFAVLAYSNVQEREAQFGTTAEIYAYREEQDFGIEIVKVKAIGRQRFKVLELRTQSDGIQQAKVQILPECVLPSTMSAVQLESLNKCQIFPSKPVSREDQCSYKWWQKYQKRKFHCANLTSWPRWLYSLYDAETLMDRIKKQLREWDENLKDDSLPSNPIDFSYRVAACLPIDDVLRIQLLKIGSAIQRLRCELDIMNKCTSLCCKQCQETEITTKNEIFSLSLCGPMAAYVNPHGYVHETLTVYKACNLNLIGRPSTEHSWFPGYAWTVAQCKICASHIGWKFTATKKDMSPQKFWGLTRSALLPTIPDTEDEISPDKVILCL

For the molecule `Cc1nc(Nc2ncc(C(=O)Nc3c(C)cccc3Cl)s2)cc(N2CCN(CCO)CC2)n1` [Dasatinib, reference compound], the IC50 was 1000 to 5000 nM in the experiment with SW620; 1000 to 5000 nM with Jurkat; greater than 10000 nM in the experiment on CCRF-CEM; 100 to 500 nM with CFPAC-1; 5000 to 10000 nM with LNcap; 5000 to 10000 nM in the experiment with MGC-803.
`NC(=O)c1ccc(N2CCC(N3CCN(Cc4ccc(C5CCC(=O)NC5=O)cc4)CC3)CC2)nc1-c1ccc(Oc2ccccc2)cc1` (centres unmarked) [GT-03753, 6-(4-(4-(4-(2,6-dioxopiperidin-3-yl)benzyl)piperazin-1-yl)piperidin-1-yl)-2-(4-phenoxyphenyl)nicotinamide]: the IC50 in the experiment on K562 fell in the range of 100 to 500 nM; in the experiment on SW620 it was 500 to 1000 nM; with MM.1R, 500 to 1000 nM.
On to `NC(=O)c1ccc(N2CCC(N3CCN(Cc4ccc(C5CCC(=O)NC5=O)c(F)c4)CC3)CC2)nc1-c1ccc(Oc2ccccc2)cc1` (centres unmarked) [GT-03754, 6-(4-(4-(4-(2,6-dioxopiperidin-3-yl)-3-fluorobenzyl)piperazin-1-yl)piperidin-1-yl)-2-(4-phenoxyphenyl)nicotinamide], for which the IC50 in the experiment on K562, in the experiment with SW620 and in the experiment on MM.1R was 100 to 500 nM each time.
As for `Cc1ccc(C(=O)Nc2ccc(CN3CCN(Cc4ccc(C5CCC(=O)NC5=O)cc4)CC3)c(C(F)(F)F)c2)cc1C#Cc1cnc2cccnn12` (centres unmarked) [GT-03936], the IC50 in the experiment with SW620 fell in the range of 100 to 500 nM; in the experiment with Jurkat it was 50 to 100 nM; in the experiment on CCRF-CEM, 100 to 500 nM; in the experiment with CFPAC-1, 100 to 500 nM; with LNcap, 100 to 500 nM; in the experiment on MGC-803, 100 to 500 nM.
As to `CN(Cc1ccc(C2CCC(=O)NC2=O)cc1)C1CCN(c2ccc(C(=O)Nc3n[nH]c4ccc(Cc5cc(F)cc(F)c5)cc34)c(NC3CCOCC3)c2)CC1` (centres unmarked) [GT-03964, N-(5-(3,5-difluorobenzyl)-1H-indazol-3-yl)-4-(4-((4-(2,6-dioxopiperidin-3-yl)benzyl)(methyl)amino)piperidin-1-yl)-2-((tetrahydro-2H-pyran-4-yl)amino)benzamide], in the experiment on TRK, the “Degradation of substrate protein TRK (substrate protein remaining %)” value is “A (A is defined as 0% ≤ substrate protein remaining % ≤ 80%)”.
Turning to `CCC(=C(c1ccc(O)cc1)c1ccc(N2CCN(Cc3ccc(C4CCC(=O)NC4=O)cc3)CC2)cc1)c1ccc(O)cc1` (centres unmarked) [GT-04149, 3-(4-((4-(4-(1,2-bis(4-hydroxyphenyl)but-1-en-1-yl)phenyl)piperazin-1-yl)methyl)phenyl)piperidine-2,6-dione], the “Degradation of substrate protein ER (substrate protein remaining %)” value at ER is recorded as “A (A is defined as 0% ≤ substrate protein remaining % ≤ 80%)”.
In the case of `O=C1CCC(c2ccc(CN3CCN(C4CCN(c5ccc([C@@H]6c7ccc(O)cc7CC[C@@H]6c6ccccc6)cc5)CC4)CC3)cc2F)C(=O)N1` (stereo partly drawn) [GT-04670, 3-(2-fluoro-4-((4-(1-(4-((1R,2S)-6-hydroxy-2-phenyl-1,2,3,4-tetrahydronaphthalen-1-yl)phenyl)piperidin-4-yl)piperazin-1-yl)methyl)phenyl)piperidine-2,6-dione], in [1], the IC50 is 500 to 1000 nM. Besides, at ER, the “Degradation of substrate protein ER (substrate protein remaining %)” value was “A (A is defined as 0% ≤ substrate protein remaining % ≤ 80%)”.
With `O=C1CCC(Nc2cccc(CN3CCN(C4CCN(c5ccc([C@@H]6c7ccc(O)cc7CC[C@@H]6c6ccccc6)cc5)CC4)CC3)c2)C(=O)N1` (stereo partly drawn) [GT-04674, 3-((3-((4-(1-(4-((1R,2S)-6-hydroxy-2-phenyl-1,2,3,4-tetrahydronaphthalen-1-yl)phenyl)piperidin-4-yl)piperazin-1-yl)methyl)phenyl)amino)pip eridine-2,6-dione], the “Degradation of substrate protein ER (substrate protein remaining %)” value at ER is on record as “A (A is defined as 0% ≤ substrate protein remaining % ≤ 80%)”.
Turning to `O=C1CCC(c2ccc(CN3CCN(C4CCN(c5ccc([C@@H]6c7ccc(O)cc7CC[C@@H]6c6ccccc6)cc5)CC4)CC3)cc2)C(=O)N1` (stereo partly drawn) [GT-04684, 3-(4-((4-(1-(4-((1R,2S)-6-hydroxy-2-phenyl-1,2,3,4-tetrahydronaphthalen-1-yl)phenyl)piperidin-4-yl)piperazin-1-yl)methyl)phenyl)piperidine-2,6-dione], in [1], the IC50 lay in the range of 1000 to 1900 nM. Moreover, the “Degradation of substrate protein ER (substrate protein remaining %)” value at ER is given as “A (A is defined as 0% ≤ substrate protein remaining % ≤ 80%)”.
With `C=CC(=O)N1CCC(c2ccc(C(N)=O)c(-c3ccc(Oc4ccccc4)cc3)n2)CC1` [Orelabrutinib, reference compound], the IC50 with H1975 is greater than 10000 nM; with K562 it was greater than 10000 nM; in the experiment with SW620, greater than 10000 nM; in the experiment on PC-9 it was greater than 10000 nM; in the experiment on MM.1R, greater than 10000 nM; in the experiment with TMD8, 5000 to 10000 nM. For the same molecule, in the experiment with H2228, the IC50 is greater than 10000 nM.
